US9820968B2, “Anti-leukemic agent useful for inducing differentiation in myeloid leukemia cells” (Council of Scientific and Industrial Research, priority 2013, dated 2017)
Where two headings read alike, the source gives them in different places.

Assays:
HL60 cells [1] = experiment: FACS flow cytometry for cd11b in HL60 cells (differentiation control); type: cell-based; details: HL60, 1 uM ATRA, 72 hrs
Experimental: (§1) K562 cells were treated with 1 μM (Subapoptotic dose) and 7.5 μM ORM (Apoptotic dose) for 24 h and 48 hrs. Post 24 h and 48 h treatment, cells were analyzed in FACS-flow cytometer for the presence of myeloid differentiation marker cd11b (FIG. 2). In parallel, HL60 cells were also treated with 1uM All-Trans-Retinoic Acid (ATRA) for 72 hrs which served as control for induction of differentiation. […] Isotype IgG-PE antibody served as negative control.

K562 cells [2] = experiment: Giemsa staining morphology, K562 cells; type: cell-based
Experimental: (§2) 3. Giemsa staining: Giemsa stain is used to differentiate nuclear and cytoplasmic morphology of blood cells. After induction with 1 uM ORM for 12 days cells were cytospun on slides at 800 rpm for 5 min and were air dried. Cells were stained with Giemsa stain (Sigma) as per manufacturer's protocol. Cells were visualized microscopically for the morphological changes.
To further corroborate the differentiation inducing potential of ORM, K562 cells were again treated with 1.0 uM ORM and vehicle for 12 days followed by cytospin and staining with Giemsa for assessment of morphological changes. […] It is noteworthy to mention here that at higher doses (5 uM to 7.5 uM) there is early onset of myeloid differentiation (72 h for 5 uM and 24,48 h for 7.5 uM) with reduced no. of cells which is likely due to apoptotic effects of ORM at higher dose. In contrary, at lower doses (1 uM) differentiation is observed after longer duration (6-15 days) with quite reduced apoptotic effect.

K562 cells [3] = experiment: FACS flow cytometry for cd11b in K562 cells; type: cell-based; details: 24 and 48 h
Experimental: 7. FACS analysis: Cells were treated with 1 uM ORM for 24 h and 48 h. Then they were washed with 1×PBS and resuspended in antibody solution along with their respective IgG isotype control for 15-20 min as per manufacturer's protocol. Cells were washed once with PBS and were resuspended in 500 ul of PBS. After this flow cytometry was done for PI labeled cells for cd11b and cd114 differentiation markers (BD Biosciences).
as §1

K562 cells [4] = experiment: Real time and semi quantitative PCR of differentiation markers, K562 cells; type: cell-based
Experimental: 5. Quantitative PCR (Real Time) and semi quantitative PCR Analysis: After induction of cells with ORM for indicated time points cells were harvested and RNA was isolated using Trizol reagent. Trizol was added to 1×10^6 cells for 5 min at room temp. Lysed cells were collected in micro centrifuge tubes and shaken vigorously for 15 sec, and incubated for 3 min at RT. 200 μl of chloroform was added to each sample and incubated yet again for 5 min at RT. Cells were centrifuged at 15,000 rpm for 15 min at 4° C. Supernatant was collected in fresh tube; 1 ml isopropanol was added and incubated for 10 min at RT. Pellet was washed once with 70% ethanol and RNA concentration was quantified. Further, RNA was retro-transcribed into cDNA and subsequently used for quantitative PCR analysis on Roche Light Cycler 480 using SYBR green master mix from Applied Biosystems. Statistical analysis was performed using ΔΔCT method. Reverse transcriptase PCR was done to check the mRNA level expression of GCSFr qualitatively. RT-PCR analysis was performed using standardized PCR protocol on BioRad C1000 Thermal Cycler.

K562 cells [5] = experiment: NBT reduction assay, K562 cells; type: cell-based; details: K562, 7.5 uM ORM 24 h and 48 hrs, 1 uM 6 days
Experimental: 4. NBT assay: The NBT Assay relies on the accumulation of blue black formazan precipitate. The membrane permeable, water soluble, yellow NBT is reduced to blue black formazan by O^−2, which is generated by activated neutrophils/phagocytes, typically by PMA. PMA activates NADPH oxidase by enhancing protein kinase C (PKC) and thus stimulates production of ROS (reactive oxygen species). After induction with 7.5 uM ORM for 24 h and 48 hr and with 1 uM ORM for 6 days cells were incubated in NBT solution for 15 min. at 37° C. Cells were washed with PBS and were resuspended in 500 ul PBS and cytospun on slides and stained with safranin O for 1 min. Number of cells showing blue-purple colouration were counted under microscope.
In order to further confirm the ORM induced differentiation in myeloid leukemia cells, Nitro Blue Tetrazolium (NBT) reduction assay is carried out which is a biochemical assay wherein activated granulocytes can reduce NBT to insoluble purple blue colour precipitates. Further, because ORM induces apoptosis at 7.5 uM in K562 cells; we treated K562 cells with 7.5 uM for 24 h and 48 hrs and 1 uM doses for longer duration, 6 days. Cells were subjected for NBT reduction analysis. […] This further confirmed differentiation inducing potential of ORM.

U937 cells = experiment: Morphology after long ORM treatment, U937 cells; type: cell-based; details: U937, 1 uM ORM, 12 and 15 days
Experimental: (§3) FIG. 7: ORM at 1 uM dose induces differentiation like morphology both in HL60 and U937 cells: (a) HL60 and (b) U937 cells were treated with 1 uM ORM for 12 and 15 days and there was change in the morphology of cells by decrease in the nuclear and cytoplasmic ratio and formation of multilobed nuclei which is typical for neutrophilic differentiation.
as §2
(§4) Profound granulocytic differentiation inducing property of ormeloxifene in K562 prompted us to investigate if ORM can also induce such differentiation in other myeloid leukemia cell lines. So we further chose HL60 and U937, a promyelocyte and myelomonocyte leukemia cell line. These cells differentiate to granulocyte lineage upon induction with all trans-retinoic acid (ATRA) and represent a very good model cell line for such differentiation assays. These cells were treated with 1 uM ORM for longer duration of 12 and 15 days followed by assessment of granulocytic/neutrophil like morphology.

HEK293T = experiment: MTT cell viability assay, HEK293T control; type: cell-based; details: Homo sapiens, HEK-293T, 293T control cells, 48 hrs, read-out: 50% growth inhibitory concentration (IC50)
Experimental: (§5) 2. MTT assay: Post 6 h synchronization, 1×10^4 cells per well were incubated at 37° C. in 96-well plastic plates with test drugs containing 10% FBS in an environment of 5% humified CO2. After 48 hrs, cell viability was assessed by the ability of metabolically active cells to reduce tetrazolium salt […] to coloured formazan compounds. The absorbance of the samples was measured with a specific enzyme-linked immunosorbent assay (ELISA) reader at 560 nm.
(§6) To calculate 50% growth inhibitory concentration (IC50) of ormeloxifene, various myeloid leukemia cells (U937, HL60, K562) and HEK293T as control were assayed with different doses of ormeloxifene for cell viability in MTT Assay. […] Various apoptosis assays were performed in myeloid leukemia cells upon treatment with ormeloxifene that induces G0-G1 phase growth arrest and caspase mediated apoptosis in myeloid leukemia via ERK activation.

[6] = tested on: primary cells isolated from CML patients; experiment: FACS for cd11b and cd114 in primary mononuclear cells from CML patients; type: cell-based, human; details: CML patient mononuclear cells, 1 uM ORM, 24 and 48 hr
Experimental: FIG. 6: ORM induces myeloid differentiation in primary cells isolated from CML patients PBMCs were isolated from patient samples and were analyzed by FACS for cd11b positive cells.
6. PBMC separation from patient sample: 10 ml peripheral blood was collected by venipuncture heparin-containing 20 ml vials. Peripheral blood mononuclear cells were isolated using density gradient centrifugation with Ficoll-Paque (1.077 g/ml). Peripheral blood was mixed in 1:1 v/v of MACS buffer and was fractionated through Ficoll-Paque. Mononuclear cells were collected from the interface, washed twice in MACS buffer and resuspended in RPMI 1640 at 37° C. in the humidified atmosphere of 5% CO2.
7. FACS analysis: Cells were treated with 1 uM ORM for 24 h and 48 h. Then they were washed with 1×PBS and resuspended in antibody solution along with their respective IgG isotype control for 15-20 min as per manufacturer's protocol. Cells were washed once with PBS and were resuspended in 500 ul of PBS. […]
Although recent studies using differentiation therapies in oncology have been successful for acute promyelocytic leukemia (APL) with the use of all-trans retinoic acid (ATRA) (S. Waxman, Leukemia, 2000, 14(3):491-496), little is known about exact mechanisms of differentiation. […] Cells were treated with 1 uM ORM and were analyzed for expression of cd11b and cd114 surface markers after 24 and 48 hr.

advanced breast cancer = details: cited from earlier work
[7] = tested on: HL60, U937 and K562 cells; details: P. Pal et al., Proteomics 2011, read-out: IC50 inducing apoptosis; cited from earlier work
Salmonella = details: Giri et al., Mutagenesis 1999; cited from earlier work
K562 cells [8] = experiment: ROS generation by flow cytometry (DCF-DA), K562 cells; type: cell-based; details: K562, 1 uM ORM
Experimental: FIG. 5: ORM at a dose of 1 uM induces ROS generation: A property of activated neutrophils: Flow cytometry analysis was performed for the ROS generation in K562 cells after treatment with 1 uM ORM for 24 h and 48 h. Cells were labeled with DCF-DA dye and fluorescence was measured.
Furthermore, ORM induces granulocytic differentiation in K562 cells, it should lead to terminal differentiation of these cells to activated neutrophils. To substantiate further the induction of granulocytic differentiation and neutrophil formation, we measured the ROS generation, which is a property of activated neutrophils by FACS flow cytometer.

[9] = tested on: myeloid leukemia cells (U937, HL60, K562); experiment: MTT cell viability assay, myeloid leukemia cells; type: cell-based; details: leukemic cells (U937, HL60, K562), read-out: 50% growth inhibitory concentration (IC50)
Experimental: FIG. 1: ORM induces cell toxicity in myeloid leukemia cells: (a) Chemical structure of ormeloxifene. […] Assay was performed on 3 replicates for each treatment and repeated twice.
as §5, §6

HL60 cells [10] = experiment: Morphology after long ORM treatment, HL60 cells; type: cell-based; details: HL60, 1 uM ORM, 12 and 15 days
Experimental: as §3, §2, §4

[11] = K562, 1 uM ORM, 24 and 48 h, real time PCR

CC1=C(/C=C/C(C)=C/C=C/C(C)=C/C(=O)O)C(C)(C)CCC1 [ATRA, All-Trans-Retinoic Acid]
cd11b early myeloid differentiation marker (HL60 cells [1]): increased

COc1ccc2c(c1)OC(C)(C)C(c1ccccc1)C2c1ccc(OCCN2CCCC2)cc1 (stereo not drawn) [ORM, 3,4-trans-2,2-dimethyl-3-phenyl-4-p-(beta-pyrrolidinoethoxy)phenyl-7-methoxychroman]
morphological changes (Giemsa) (K562 cells [2]; K562, 1.0 uM ORM, 12 days): differentiated cells having neutrophil like morphology were observed
morphological changes (Giemsa) (K562 cells [2]; K562, 5 uM ORM, 72 hrs): neutrophil like morphological changes
cells expressing cd11b marker (K562 cells [3]; K562, 1.0 uM ORM): increased percentage of cells expressing CD11b markers
cells expressing cd11b marker (K562 cells [3]; K562, 7.5 uM ORM): Reduced number of cd11b expressing cells
C/EBP epsilon mRNA expression (K562 cells [4]; [11]): increased mRNA expression
C/EBPalpha mRNA expression (K562 cells [4]; [11]): increased mRNA expression
GCSFr mRNA expression (K562 cells [4]; [11]): increased mRNA expression
cd11b mRNA expression (K562 cells [4]; [11]): increased mRNA expression
GCSFr mRNA expression (K562 cells [4]; K562, 7.5 uM ORM, 24 h and 48 h, quantitative and semi quantitative PCR): modest upregulation
level of GCSFr (K562 cells [4]; K562, Reverse transcriptase-PCR (FIG. 4f, g)): marked increase
NBT reduction (K562 cells [5]): dramatic increase in NBT reduction
granulocytic/neutrophil like morphology (U937 cells): large number of cells with multilobed nucleus
IC50 (HEK293T): 25 µM
expression of cd11b surface marker [6]: significant upregulation
expression of cd114 surface marker [6]: significant upregulation
overall response rate (advanced breast cancer; both male and female cases (4 male, 75 female)): 40.5%
overall response rate (advanced breast cancer; female patients): 38.7%
IC50 [7]: 7.5 µM
mutagenic effects of DMBA, CP, MMC and EMS (Salmonella): can reduce the mutagenic effects
ROS generation (K562 cells [8]): Significant upregulation in ROS generation
IC50 ([9]; 48 h): ~7.5 µM
IC50 ([9]; 48 hrs): ~7 µM
granulocytic/neutrophil like morphology (HL60 cells [10]): large number of cells with multilobed nucleus
